In US7744590B2, “Red to near-infrared photobiomodulation treatment of the visual system in visual system disease or injury” (Medical College of Wisconsin Research Foundation, Inc., priority 2003, dated 2010):

How the values were obtained:
[1] = test system: methanol-intoxicated rats; assay: Rod and M-cone (15 Hz/510 nm) ERG after 72 hours of methanol intoxication; type: in vivo, rat
Description: (§1) Methanol-intoxication Protocol.
(§2) Light-Emitting Diode Treatment.
ERG Procedures and Analyses.
All sensitivity measures were made in triplicate.
15 Hz/510 nm ERG Response. ERGs were recorded in response to a 15-Hz flickering light at a wavelength of 510 nm over a 3-log unit range of light intensity.

[2] = test system: methanol-intoxicated rats; assay: Retinal histopathology by light and electron microscopy; details: rat, in vivo
Source text: as §1, §2
Histopathologic Analysis.

[3] = test system: methanol-intoxicated rats
Description: Animals were randomly assigned to one of four treatment groups: (1) Untreated control, (2) LED-treated control, (3) methanol-intoxicated and (4) LED-treated methanol-intoxicated rats. Rats were placed in a thermostatically controlled plexiglass chamber (22×55×22 cm; maintained at 22-23° C.) and exposed to a mixture of N2O/O2 (1:1; flow rate 2 liters/min) for the duration of the experiment. […] In the present studies, methanol (25% w/v methanol in saline) was administered (i.p.) to N2O/O2 treated rats at an initial dose of dose 4 g/kg, followed by supplemental doses of 1.5 g/kg at 24 and 48 hours.
Light-Emitting Diode Treatment. […] Rats were placed in a plexiglass restraint device (12.7×9×7.6 cm). The LED array was positioned directly over the animal at a distance of 1 inch, exposing the entire body. Treatment consisted of irradiation at 670 nm for 2 minutes and 24 seconds resulting in a power intensity of 28 mW/cm^2 and an energy density of 4 joules/cm^2 at 5, 25 and 50 hours after the initial dose of methanol.
ERG Procedures and Analyses. ERG experiments were performed as previously described (M. T. Seme, et al., supra, 1999; M. T. Seme, et al., supra, 2001). The light stimulation apparatus consisted of a three-beam optical system. All three beams were derived from tungsten-halide lamps (50 W, 12 V). Beam intensity was controlled by using neutral density step filters. ERG recordings were differentially amplified and computer-averaged. The amplified signal was processed through a two-stage active narrow bandpass filter (the half voltage of this filter was 0.2 times the center frequency). […] The averaged responses were measured (peak-to-trough amplitude) from a calibrated digital oscilloscope display.
Before ERG analysis, ophthalmoscopic examination confirmed that all eyes were free of lenticular opacities or other gross anomalies. […] The stimulus intensity yielding a 5-μV criterion response was determined by extrapolating between the two intensity points that bracketed the 5-μV response for each animal.

With `CO` [methanol, Methanol] the “increase of 5 μV threshold light intensity relative to control, 15-Hz/510-nm ERG” value [1] was 0.6 log units, the “maximal 15-Hz/510-nm ERG amplitude” value ([1]; 72 hours, no LED) was 18±5 μV and the “maximal rod and M-cone ERG amplitude as % of the maximum control response” value ([1]; 72 hours, no LED) was “approximately 28%”. The “light intensity required to elicit a threshold (5 μV) 15-Hz/510-nm ERG response” value ([1]; controls −3.0±0.1 LRRI) was −2.4±0.1 LRRI, the outer retinal histopathology [2] was “Pronounced histopathologic changes” and the “increase of light intensity required for a 5-μV UV-cone response” value [3] was 0.5 log units. For the same molecule, the “maximal UV-cone ERG response amplitude” value ([3]; 72 hours, no LED) was 18±6 μV and the “maximal UV-cone ERG amplitude as % of the maximum control response” value ([3]; no LED) was 30%.
